In this assay the target is T1, BCL6::BCOR (Homo sapiens, UniProt P41182, C67R/C84N/C8Q).
T1 construct: BCL6 (amino acids 5 to 129, with the following changes to the natural protein); made in house; host or cells: E. coli
Briefly: BCL6::BCOR ULight TR-FRET assay. Type of assay: binding. The text has this:
Biological Methods BCL6::BCOR ULight TR-FRET Assay:
Biotinylated BCL6 protein corresponding to BCL6 (amino acids 5 to 129, with the following changes to the natural protein: C8Q, C67R, C84N) is expressed in E. coli with a carboxy-terminal Avi tag (amino acid sequence […]). The BCOR ULight peptide uses a direct carboxy-terminal ULight tag (PerkinElmer). The sequence of the peptide is CRSEIISTAPSSWVVPGP, with the amino terminus acetylated and the ULight tag attached to the cysteine. Compounds are dispensed onto assay plates (Proxiplate 384 PLUS, white, PerkinElmer) using an Access Labcyte Workstation with the Labcyte Echo 55×from a DMSO solution. For the chosen highest assay concentration of 100 μM, 150 nl of compound solution are transferred from a 10 mM DMSO compound stock solution. A series of 11 concentrations is transferred for each compound at which each concentration is fivefold lower than the previous one. DMSO is added such that every well has a total of 150 nl compound solution. 5 μL of 1 nM BCL6 protein in assay buffer (50 mM HEPES pH 7.3; 125 mM NaCl; 1 mM GSH; 0.01% Triton-X 100; 0.03% BSA) are added to the 150 nl of compounds. After 30 minutes incubation time at room temperature, 10 μL of a mix containing BCOR ULight peptide (100 nM final assay concentration) and Streptavidin-Europium (0.75 nM final assay concentration) are added. Plates are kept at room temperature. After 240 minutes incubation time the TR-FRET signal is measured in a PerkinElmer Envision HTS Multilabel Reader using the TR-FRET LANCE Ultra specs of PerkinElmer. Each plate contains negative controls (diluted DMSO instead of test compound; BCOR peptide and Streptavidin Europium mix with BCL6 protein) and positive controls (diluted DMSO instead of test compound; BCOR peptide and Streptavidin-Europium mix without BCL6 protein). Negative and positive control values are used for normalization.
For orientation: In TR-FRET formats the signal depends on donor and acceptor labels being close together.
Consider `CNC(=O)COc1cc2cc(Nc3nc(N4CCC(F)(F)CC4)ncc3Cl)cc(OC)c2n(C)c1=O` [Compound I-97], for which the IC50 (in general, the point on the concentration scale where inhibition reaches its midpoint) came to 0.004 µM.

In turn, `CNC(=O)COc1cc2cc(Nc3nc(N4CCC(F)CC4)ncc3Cl)cc(OC)c2n(C)c1=O` [Compound I-98] came in with an IC50 of 0.004 µM. This lies in the single-digit nanomolar range. Then `CNC(=O)COc1cc2cc(Nc3nc(N4C[C@H](C)C[C@H](C)C4)ncc3Cl)cc(OC)c2n(C)c1=O` [Compound I-99], with 0.007 µM; and `C[C@@H]1C[C@H](C)CN(c2ncc(F)c(Nc3ccc4c(c3)cc(OCC(=O)O)c(=O)n4C)n2)C1` [Compound I-100], with 0.012 µM. Then `Cn1c(=O)c(OCC(=O)O)cc2cc(Nc3nc(N4CCC(Nc5ncccn5)CC4)ncc3Cl)ccc21` [Compound I-101], with 0.01 µM; and `Cn1c(=O)c(OCC(=O)O)cc2cc(Nc3nc(N4CCC(C(=O)O)CC4)ncc3Cl)ccc21` [Compound I-102], with 0.007 µM; and `Cn1c(=O)c(OCC(=O)O)cc2cc(Nc3nc(N4CCC5(CC4)OCCCO5)ncc3Cl)ccc21` [Compound I-103], with 0.01 µM.

`CCOC(=O)CC1CCCN(c2ncc(Cl)c(Nc3ccc4c(c3)cc(OCC(=O)O)c(=O)n4C)n2)C1` (stereo not drawn) [Compound I-104] showed an IC50 of 0.01 µM. As to `Cn1c(=O)c(OCC(=O)O)cc2cc(Nc3nc(N4CCCN(c5ccccc5)CC4)ncc3Cl)ccc21` [Compound I-105], the IC50 amounted to 0.114 µM. Then `Cn1c(=O)c(OCC(=O)O)cc2cc(Nc3nc(N4CCc5ccccc5CC4)ncc3Cl)ccc21` [Compound I-106], with 0.21 µM; and `CCNC(=O)C1CCCN(c2ncc(Cl)c(Nc3ccc4c(c3)cc(OCC(=O)O)c(=O)n4C)n2)C1` (stereo not drawn) [Compound I-107], with 0.01 µM. The same measure for `Cn1c(=O)c(OCC(=O)O)cc2cc(Nc3nc(N4C[C@H]5C[C@@H](C4)c4ccccc45)ncc3Cl)ccc21` [Compound I-108]: 0.038 µM. The same measure for `Cn1c(=O)c(OCC(=O)O)cc2cc(Nc3nc(N4CCC(c5ccccc5)CC4)ncc3Cl)ccc21` [Compound I-109]: 0.021 µM.

As for `COCCN1CCN(c2ncc(Cl)c(Nc3ccc4c(c3)cc(OCC(=O)O)c(=O)n4C)n2)CC1C` (stereo not drawn) [Compound I-110], the IC50 worked out at 0.017 µM. The same measure for `Cn1c(=O)c(OCC(=O)O)cc2cc(Nc3nc(N4CCC5(CCCCC5)CC4)ncc3Cl)ccc21` [Compound I-111]: 0.108 µM.

On to `CCOC1CCCN(c2ncc(Cl)c(Nc3ccc4c(c3)cc(OCC(=O)O)c(=O)n4C)n2)C1` (stereo not drawn) [Compound I-112], for which the IC50 was determined as 0.007 µM. The same measure for `C#CC1CCN(c2ncc(Cl)c(Nc3ccc4c(c3)cc(OCC(=O)O)c(=O)n4C)n2)CC1` [Compound I-113]: 0.007 µM; for `CC1CN(c2ncc(Cl)c(Nc3ccc4c(c3)cc(OCC(=O)O)c(=O)n4C)n2)CCS1` (stereo not drawn) [Compound I-114]: 0.009 µM; for `Cn1cnc2c1CCN(c1ncc(Cl)c(Nc3ccc4c(c3)cc(OCC(=O)O)c(=O)n4C)n1)C2` [Compound I-115]: 0.009 µM. For the compound `Cn1c(=O)c(OCC(=O)O)cc2cc(Nc3nc(N4CCc5[nH]nnc5C4)ncc3Cl)ccc21` [Compound I-116], inhibition was half-maximal at 0.01 µM (IC50). The compound `C[C@H]1CN(c2ncc(Cl)c(Nc3ccc4c(c3)cc(OCC(=O)O)c(=O)n4C)n2)CCO1` [Compound I-117] came in with a half-inhibitory concentration (IC50) of 0.011 µM. The same measure for `Cn1c(=O)c(OCC(=O)O)cc2cc(Nc3nc(N4CCCC(F)(F)CC4)ncc3Cl)ccc21` [Compound I-118]: 0.016 µM; for `CC1CCCN(c2ncc(Cl)c(Nc3ccc4c(c3)cc(OCC(=O)O)c(=O)n4C)n2)C1` (stereo not drawn) [Compound I-119]: 0.013 µM. In the case of `Cn1c(=O)c(OCC(=O)O)cc2cc(Nc3nc(N4CCC(N5CCOCC5)C4)ncc3Cl)ccc21` (stereo not drawn) [Compound I-120], the IC50 worked out at 0.011 µM. Then `CC1CCN(c2ncc(Cl)c(Nc3ccc4c(c3)cc(OCC(=O)O)c(=O)n4C)n2)CC1` [Compound I-121], with 0.01 µM; and `CCC1CN(c2ncc(Cl)c(Nc3ccc4c(c3)cc(OCC(=O)NC)c(=O)n4C)n2)CCN1CC(F)F` (stereo not drawn) [Compound I-122], with 0.006 µM; and `CNC(=O)COc1cc2cc(Nc3nc(N4CCCC(CCCCN5CCCC5)C4)ncc3Cl)ccc2n(C)c1=O` (stereo not drawn) [Compound I-123], with 0.007 µM. Then `CNC(=O)COc1cc2cc(Nc3nc(N4CCC5CN(Cc6ccccc6)CC54)ncc3Cl)ccc2n(C)c1=O` (stereo not drawn) [Compound I-125], with 0.01 µM; and `CCN(CC)CCCCC1CCCN(c2ncc(Cl)c(Nc3ccc4c(c3)cc(OCC(=O)NC)c(=O)n4C)n2)C1` (stereo not drawn) [Compound I-126], with 0.007 µM; and `CNC(=O)COc1cc2cc(Nc3nc(N4CCCC(CN5CCCCC5)C4)ncc3Cl)ccc2n(C)c1=O` (stereo not drawn) [Compound I-127], with 0.009 µM. Compound `CCCN(CCC)CCC1CCN(c2ncc(Cl)c(Nc3ccc4c(c3)cc(OCC(=O)NC)c(=O)n4C)n2)CC1` [Compound I-128] displayed an IC50 of 0.007 µM. This IC50 and that of the compound before are within 1.5-fold of each other.

Turning to `C[C@@H]1C[C@H](C)CN(c2ncc(Cl)c(Nc3ccc4c(c3)cc(OCC(=O)O)c(=O)n4C)n2)C1` [Compound I-131, 2-{[6-({5-chloro-2-[cis-3,5-dimethylpiperidin-1-yl]pyrimidin-4-yl}amino)-1-methyl-2-oxo-1,2-dihydroquinolin-3-yl]oxy}-acetic acid], the IC50 was 0.005 µM.

On to `Cn1c(=O)c(OCC(=O)O)cc2cc(Nc3nc(N4CCC(F)CC4)ncc3Cl)ccc21` [Compound I-132, 2-[(6-{[5-chloro-2-(4-fluoropiperidin-1-yl)pyrimidin-4-yl]amino}-1-methyl-2-oxo-1,2-dihydro-quinolin-3-yl)oxy]acetic acid], for which the IC50 is 0.005 µM. This lies in the single-digit nanomolar range. Then `C[C@@H]1C[C@H](C)CN(c2ncc(Cl)c(Nc3ccc4c(c3)cc(OCC(=O)N(C)C)c(=O)n4C)n2)C1` [Compound I-133, 2-{[6-({5-chloro-2-[cis-3,5-dimethyl-piperidin-1-yl]pyrimidin-4-yl}amino)-1-methyl-2-oxo-1,2-dihydroquinolin-3-yl]oxy}-N,N-dimethylacetamide], with 0.029 µM.

Take `COCCN(C)C(=O)COc1cc2cc(Nc3nc(N4C[C@H](C)C[C@H](C)C4)ncc3Cl)ccc2n(C)c1=O` [Compound I-134]: inhibition was half-maximal at 0.077 µM (IC50).

Consider `C[C@@H]1C[C@H](C)CN(c2ncc(Cl)c(Nc3ccc4c(c3)cc(OCC(=O)NCCO)c(=O)n4C)n2)C1` [Compound I-135], for which the IC50 turned out to be 0.016 µM.

In turn, `C[C@@H]1C[C@H](C)CN(c2ncc(Cl)c(Nc3ccc4c(c3)cc(OCC(=O)NCC(O)C(F)(F)F)c(=O)n4C)n2)C1` (stereo partly drawn) [Compound I-136] registered an IC50 of 0.269 µM. Against the preceding compound, the IC50 is about 17-fold higher. The same measure for `CCNC(=O)COc1cc2cc(Nc3nc(N4C[C@H](C)C[C@H](C)C4)ncc3Cl)ccc2n(C)c1=O` [Compound I-137]: 0.021 µM.

Take `C[C@@H]1C[C@H](C)CN(c2ncc(Cl)c(Nc3ccc4c(c3)cc(OCC(=O)NCCN(C)C)c(=O)n4C)n2)C1` [Compound I-138]: inhibition was half-maximal at 0.529 µM (IC50). Compared with the last compound, the IC50 is about 25-fold higher. The same measure for `C[C@@H]1C[C@H](C)CN(c2ncc(Cl)c(Nc3ccc4c(c3)cc(OCC(=O)OCCN(C)C)c(=O)n4C)n2)C1` [Compound I-139, 2-(dimethylamino)ethyl 2-{[6-({5-chloro-2-[cis-3,5-dimethylpiperidin-1-yl]pyrimidin-4-yl}amino)-1-methyl-2-oxo-1,2-dihydroquinolin-3-yl]oxy}acetate]: 0.006 µM; for `CC(CN(C)C)OC(=O)COc1cc2cc(Nc3nc(N4C[C@H](C)C[C@H](C)C4)ncc3Cl)ccc2n(C)c1=O` (stereo partly drawn) [Compound I-140]: 0.005 µM; for `C[C@@H]1C[C@H](C)CN(c2ncc(Cl)c(Nc3ccc4c(c3)cc(OCC(=O)OCCCN(C)C)c(=O)n4C)n2)C1` [Compound I-141]: 0.009 µM. The same measure for `C[C@@H]1C[C@H](C)CN(c2ncc(Cl)c(Nc3ccc4c(c3)cc(OCC(=O)OCCN3CCOCC3)c(=O)n4C)n2)C1` [Compound I-142]: 0.005 µM; for `CNC(=O)COc1cc2cc(Nc3nc(N4CCC(C(=O)N(C)CCOCCN)CC4)ncc3Cl)ccc2n(C)c1=O` [Compound I-143]: 0.006 µM. Then `CNC(=O)COc1cc2cc(Nc3nc(N4CCC(C(=O)NCCOCCN)CC4)ncc3Cl)ccc2n(C)c1=O` [Compound I-144], with 0.022 µM; and `CNC(=O)COc1cc2cc(Nc3nc(N4CCC(C(=O)NCCCCCN)CC4)ncc3Cl)ccc2n(C)c1=O` [Compound I-145], with 0.006 µM. As to `CNC(=O)COc1cc2cc(Nc3nc(N4CCC(C(=O)NCCCCCCN)CC4)ncc3Cl)ccc2n(C)c1=O` [Compound I-146], the IC50 came out at 0.006 µM.

As for `CNC(=O)COc1cc2cc(Nc3nc(N4CCC(C(=O)NCCOCCOCCN)CC4)ncc3Cl)ccc2n(C)c1=O` [Compound I-147], the IC50 stood at 0.005 µM.

Source of the values: US11001570B2, “6-amino-quinolinone compounds and derivatives as BCL6 inhibitors” (Boehringer Ingelheim International GmbH, priority 2016, dated 2021).
